# Like-named read-outs stand apart in the source and are kept apart here.
# Assays:
# [1] = target: biotinylated human IL-17A / AF647-labeled human IL-17RA (Homo sapiens, UniProt Q16552); test: Human IL-17A×IL-17RA TR-FRET assay; assay type: binding
# Method in brief: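 Compounds tested in duplicate at each concentration; neutral controls contain all components with DMSO in place of compound.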
# [2] = target: recombinant human IL-17AA (Homo sapiens, UniProt Q16552); test: IL-6 release from NHDF cells, IL-17AA plus TNF-α stimulation; assay type: cell-based; conditions: 24 hours, IL-6 by ELISA
# Method in brief: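 ELISA measured IL-6 in supernatants after 24 h at 37° C of NHDF cells with a compound/cytokine cocktail, pre-mixed 30 min at room temperature. Duplicates; 0.1% DMSO or 20% plasma final. IC50 from IL-6 remaining after subtracting the TNF-α-alone signal.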
# [3] = TR-FRET, biotinylated human IL-17A 5 nM, AF647-labeled human IL-17RA 30 nM, read-out: IL17AA FRET/ IL17Rawt IC50
# [4] = NHDF cells, IL-17AA 30 pM plus TNF-α 6 pM, read-out: IL17AA + TNF IC50 IL-6
# [5] = IL17AA FRET/ IL17Rawt IC50, TR-FRET, biotinylated human IL-17A 5 nM, AF647-labeled human IL-17RA 30 nM
# [6] = IL17AA + TNF IC50 IL-6, NHDF cells, IL-17AA 30 pM plus TNF-α 6 pM
# [7] = TR-FRET, 5 nM IL-17A, 30 nM IL-17RA, read-out: IL17AA FRET/ IL17Rawt IC50
# [8] = NHDF cells, IL-17AA 30 pM + TNF-α 6 pM, read-out: IL17AA + TNF IC50 IL-6
# Chain of biotinylated human IL-17A / AF647-labeled human IL-17RA (Q16552 24-155): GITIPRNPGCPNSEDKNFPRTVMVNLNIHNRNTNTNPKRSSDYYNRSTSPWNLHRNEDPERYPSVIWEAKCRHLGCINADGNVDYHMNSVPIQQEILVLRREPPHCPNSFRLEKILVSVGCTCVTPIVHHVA
# Chain of recombinant human IL-17AA (Q16552 24-155): as above
Structure (SMILES),"IC50 [1, 3] [nM]","IC50 [2, 4] [nM]",other results
"Cc1c(-c2ccc(NC(=O)[C@@H](NC(=O)c3ccnn3C)C3CCC(F)(F)CC3)cc2F)c(Cl)cc[n+]1[O-] [Example 107, 4-chloro-3-(4-((S)-2-(4,4-difluorocyclohexyl)-2-(1-methyl-1H-pyrazole-5-carboxamido)acetamido)-2-fluorophenyl)-2-methylpyridine 1-oxide]",19,15,
"Cc1cc[n+]([O-])c(C)c1-c1ccc(NC(=O)[C@@H](NC(=O)c2conc2C)[C@@H]2CC=C(F)CC2)cc1 [Example 29, 3-(4-((S)-2-((S)-4-fluorocyclohex-3-en-1-yl)-2-(3-methylisoxazole-4-carboxamido)acetamido)phenyl)-2,4-dimethylpyridine 1-oxide]",85,47,
"Cc1cc[n+]([O-])c(C)c1-c1ccc(NC(=O)[C@H](Cc2ccccc2)NC(=O)c2conc2C)cc1 [Example 74, (S)-2,4-dimethyl-3-(4-(2-(3-methylisoxazole-4-carboxamido)-3-phenylpropanamido)phenyl)pyridine 1-oxide]",1530,> 10000,
"CCn1nccc1C(=O)N[C@H](C(=O)Nc1ccc(-c2c(C(F)(F)F)cc[n+]([O-])c2C)cc1)C1CCC(F)(F)CC1 [Example 11, (S)-3-(4-(2-(4,4-difluorocyclohexyl)-2-(1-ethyl-1H-pyrazole-5-carboxamido)acetamido)phenyl)-2-methyl-4-(trifluoromethyl)pyridine 1-oxide]",82,20,
"Cc1cc[n+]([O-])c(C)c1-c1ccc(NC(=O)C(NC(=O)c2ccnn2C)C2CCC(C(F)(F)F)CC2)cc1F [Example 91, 3-(2-fluoro-4-((S)-2-(1-methyl-1H-pyrazole-5-carboxamido)-2-((1r,4S)-4-(trifluoromethyl)cyclohexyl)acetamido)phenyl)-2,4-dimethylpyridine 1-oxide]",,,"IC50 [1, 5]: 134 nM; IC50 [2, 6]: 39 nM"
"Cc1c(-c2ccc(NC(=O)[C@@H](NC(=O)c3ccc4n3CCNC4)C3CCC(F)(F)CC3)cc2)c(Cl)cc[n+]1[O-] [Example 196, (S)-4-chloro-3-(4-(2-(4,4-difluorocyclohexyl)-2-(1,2,3,4-tetrahydropyrrolo[1,2-a]pyrazine-6-carboxamido)acetamido)phenyl)-2-methylpyridine 1-oxide]",,,"IC50 [1, 7]: 181 nM; IC50 [2, 8]: 12.6 nM"
"Cc1cc[n+]([O-])c(Cl)c1-c1ccc(NC(=O)[C@@H](NC(=O)c2ccnn2C)C2CCCCC2)cc1 [Example 89, (S)-2-chloro-3-(4-(2-cyclohexyl-2-(1-methyl-1H-pyrazole-5-carboxamido)acetamido)phenyl)-4-methylpyridine 1-oxide]",286,83,
"Cc1c(-c2ccc(NC(=O)[C@@H](NC(=O)c3ccnn3C)C3CCC(F)(F)CC3)cc2F)cc(Cl)c[n+]1[O-] [Example 174, (S)-5-chloro-3-(4-(2-(4,4-difluorocyclohexyl)-2-(1-methyl-1H-pyrazole-5-carboxamido)acetamido)-2-fluorophenyl)-2-methylpyridine 1-oxide]",,,"IC50 ([1]; IL17AA FRET/ IL17Rawt IC50, TR-FRET, 5 nM IL-17A, 30 nM IL-17RA): 683 nM; IC50 ([2]; IL17AA + TNF IC50 IL-6, NHDF cells, IL-17AA 30 pM + TNF-α 6 pM): 286 nM"
"CCn1nccc1C(=O)N[C@H](C(=O)Nc1ccc(-c2c(C(F)(F)F)cc[n+]([O-])c2C)cc1)C1CCCC1 [Example 21, (S)-3-(4-(2-cyclopentyl-2-(1-ethyl-1H-pyrazole-5-carboxamido)acetamido)phenyl)-2-methyl-4-(trifluoromethyl)pyridine 1-oxide]",39,31,
"Cc1c(-c2ccc(NC(=O)C(NC(=O)c3ccc4n3CCNC4)C3CCCc4ccccc43)cc2F)c(Cl)cc[n+]1[O-] [Example 186, 4-chloro-3-(2-fluoro-4-((S)-2-((S)-1,2,3,4-tetrahydronaphtha]en-1-yl)-2-(1,2,3,4-tetrahydropyrrolo[1,2-a]pyrazine-6-carboxamido)acetamido)phenyl)-2-methylpyridine 1-oxide]",,,"IC50 [1, 7]: 81.5 nM; IC50 [2, 8]: 34 nM"
"Cc1cc[n+]([O-])c(C)c1-c1ccc(NC(=O)[C@H](Cc2ccccc2Cl)NC(=O)c2conc2C)cc1 [Example 38, (S)-3-(4-(3-(2-chlorophenyl)-2-(3-methylisoxazole-4-carboxamido)propanamido)phenyl)-2,4-dimethylpyridine 1-oxide]",17,131,
"Cc1cc[n+]([O-])c(C)c1-c1ccc(NC(=O)[C@@H](NC(=O)c2ccnn2C2CC2)C2CCCCC2)cc1 [Example 94, (S)-3-(4-(2-cyclohexyl-2-(1-cyclopropyl-1H-pyrazole-5-carboxamido)acetamido)phenyl)-2,4-dimethylpyridine 1-oxide]",128,47,
"Cc1c(-c2ccc(NC(=O)[C@@H](NC(=O)c3ccc4n3CCN(C3COC3)C4)C3CCCCC3)cc2F)c(Cl)cc[n+]1[O-] [Example 133, 4-chloro-3-(4-((S)-2-cyclohexyl-2-(2-(oxetan-3-yl)-1,2,3,4-tetrahydropyrrolo[1,2-a]pyrazine-6-carboxamido)acetamido)-2-fluorophenyl)-2-methylpyridine 1-oxide]",99,17,
"CCc1nocc1C(=O)N[C@H](C(=O)Nc1ccc(-c2c(C)cc[n+]([O-])c2C)cc1)C1CCC(F)(F)CC1 [Example 31, (S)-3-(4-(2-(4,4-difluorocyclohexyl)-2-(3-ethylisoxazole-4-carboxamido)acetamido)phenyl)-2,4-dimethylpyridine 1-oxide]",114,15,
"Cc1c[n+]([O-])cc(C)c1-c1ccc(NC(=O)[C@@H](NC(=O)c2ccnn2C2CCC2)C2CCCCCC2)cc1 [Example 102, (S)-4-(4-(2-(1-cyclobutyl-1H-pyrazole-5-carboxamido)-2-cycloheptylacetamido)phenyl)-3,5-dimethylpyridine 1-oxide]",123,17,
"Cc1c[n+]([O-])cc(C)c1-c1ccc(NC(=O)[C@@H](NC(=O)c2ccnn2C)[C@H]2CCc3ccccc3C2)cc1 [Example 103, 3,5-dimethyl-4-(4-((S)-2-(1-methyl-1H-pyrazole-5-carboxamido)-2-((S)-1,2,3,4-tetrahydronaphthalen-2-yl)acetamido)phenyl)pyridine 1-oxide]",72,45,
"Cc1nscc1C(=O)N[C@H](C(=O)Nc1ccc(-c2c(Cl)cc[n+]([O-])c2C)c(F)c1)C1CCCCC1 [Example 17, 4-chloro-3-(4-((S)-2-cyclohexyl-2-(3-methylisothiazole-4-carboxamido)acetamido)-2-fluorophenyl)-2-methylpyridine 1-oxide]",118,18,
"CC(=O)N1CCn2c(ccc2C(=O)N[C@H](C(=O)Nc2ccc(-c3c(Cl)cc[n+]([O-])c3C)cc2F)C2CCCCC2)C1 [Example 184, (S)-3-(4-(2-(2-acetyl-1,2,3,4-tetrahydropyrrolo[1,2-a]pyrazine-6-carboxamido)-2-cyclohexylacetamido)-3-fluorophenyl)-4-chloro-2-methylpyridine 1-oxide]",,,"IC50 [1, 7]: 59.9 nM; IC50 [2, 8]: 11 nM"
"Cc1cc[n+]([O-])c(C)c1-c1ccc(NC(=O)C(NC(=O)c2ccnn2C)C2CCC(C)CC2)cc1F [Example 84, 3-(2-fluoro-4-((S)-2-(1-methyl-1H-pyrazole-5-carboxamido)-2-((1r,4S)-4-methylcyclohexyl)acetamido)phenyl)-2,4-dimethylpyridine 1-oxide]",,,"IC50 [1, 5]: 14 nM; IC50 [2, 6]: 8 nM"
"Cc1c(-c2ccc(NC(=O)[C@@H](NC(=O)c3ccnn3C)C3CC=C(F)CC3)cc2)c(C(F)(F)F)cc[n+]1[O-] (stereo partly drawn) [Example 65, 3-(4-((2S)-2-(4-fluorocyclohex-3-en-1-yl)-2-(1-methyl-1H-pyrazole-5-carboxamido)acetamido)phenyl)-2-methyl-4-(trifluoromethyl)pyridine 1-oxide]",57,24,
"Cc1c(-c2ccc(NC(=O)[C@@H](NC(=O)c3ccnn3C)C3CC=C(F)CC3)cc2)c(Cl)cc[n+]1[O-] (stereo partly drawn) [Example 55, 4-chloro-3-(4-((2S)-2-(4-fluorocyclohex-3-en-1-yl)-2-(1-methyl-1H-pyrazole-5-carboxamido)acetamido)phenyl)-2-methylpyridine 1-oxide]",38,27,
"CC(=O)N1CCn2ccc(C(=O)N[C@H](C(=O)Nc3ccc(-c4c(C)cc[n+]([O-])c4C)cc3)C3CCCCCC3)c2C1 [Example 185, (S)-3-(4-(2-(2-acetyl-1,2,3,4-tetrahydropyrrolo[1,2-a]pyrazine-8-carboxamido)-2-cycloheptylacetamido)phenyl)-2,4-dimethylpyridine 1-oxide]",,,"IC50 [1, 7]: 77.1 nM; IC50 [2, 8]: 9.75 nM"
"Cc1cc[n+]([O-])c(C)c1-c1ccc(NC(=O)[C@@H](NC(=O)c2ccnn2C)C2CCCC2)cc1 [Example 36, (S)-3-(4-(2-cyclopentyl-2-(1-methyl-1H-pyrazole-5-carboxamido)acetamido)phenyl)-2,4-dimethylpyridine 1-oxide]",1410,38,

# From patent US12600728B2, “Interleukin-17 inhibitors” (priority 2020, dated 2026)
